Assay type in all cases: cell-based
Test [1] relates to Mannheimia haemolytica MH 6357 (M7/2, reference strain, cattle infection strain). Briefly: MIC, broth-microdilution (CLSI VET01-A4), strain MH 6357. The settings on record: Mannheimia haemolytica strain MH 6357, broth-microdilution; unit assumed. The gist of the method:
(§1)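 The compound was titrated in twofold steps in microdilution trays. Absence of turbidity, checked without instruments, marked the MIC at the lowest such concentration.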

For test [2], the system named is Mannheimia haemolytica MH 6374 (ATCC 33396, reference strain). Briefly: MIC, broth-microdilution (CLSI VET01-A4), strain MH 6374. The following applies: Mannheimia haemolytica strain MH 6374, broth-microdilution; unit assumed. Put shortly:
as §1

For test [3], the system named is Mannheimia haemolytica MH 10720 (154, BRD field isolate). Briefly: MIC, broth-microdilution (CLSI VET01-A4), strain MH 10720. The following applies: Mannheimia haemolytica strain MH 10720, broth-microdilution; unit assumed. Put shortly: as §1
The subject of test [4] is Mannheimia haemolytica MH 12587 (1071, BRD field isolate, macrolide-resistance: erm+, E+). Briefly: MIC, broth-microdilution (CLSI VET01-A4), strain MH 12587. The following applies: Mannheimia haemolytica strain MH 12587, broth-microdilution; unit assumed. Put shortly:
as §1
In general terms: In broth dilution the organism is exposed to a series of concentrations in liquid medium.

Test [5] deals with Mannheimia haemolytica MH 13065 (XB0446-6003.9, BRD field isolate). Briefly: MIC, broth-microdilution (CLSI VET01-A4), strain MH 13065. The following applies: Mannheimia haemolytica strain MH 13065, broth-microdilution; unit assumed. Put shortly: as §1
For test [6], the system named is Mannheimia haemolytica MH 13093 (XB0472-6014.1, BRD field isolate). Briefly: MIC, broth-microdilution (CLSI VET01-A4), strain MH 13093. The following applies: Mannheimia haemolytica strain MH 13093, broth-microdilution; unit assumed. Put shortly:
as §1

For test [7], the system named is Pasteurella multocida PM 6267 (P 2225 (L386), reference strain, mouse infection strain). Briefly: MIC, broth-microdilution (CLSI VET01-A4), strain PM 6267. The following applies: Pasteurella multocida strain PM 6267, broth-microdilution; unit assumed. The gist of the method: as §1
The test system of test [8] is Pasteurella multocida PM 6391 (ATCC 43137, reference strain). Briefly: MIC, broth-microdilution (CLSI VET01-A4), strain PM 6391. The following applies: Pasteurella multocida strain PM 6391, broth-microdilution; unit assumed. Put shortly:
as §1

For test [9], the system named is Pasteurella multocida PM 10775 (080130003051, BRD field isolate). The test can be described thus: MIC, broth-microdilution (CLSI VET01-A4), strain PM 10775. The following applies: Pasteurella multocida strain PM 10775, broth-microdilution; unit assumed. Put shortly:
as §1

Test [10] deals with Pasteurella multocida PM 12080 (IV102277-0093, BRD field isolate). Briefly: MIC, broth-microdilution (CLSI VET01-A4), strain PM 12080. The following applies: Pasteurella multocida strain PM 12080, broth-microdilution; unit assumed. The gist of the method:
as §1

Structures are written as SMILES. In brackets after ≈: the same amount, converted by molar mass. Where only a bound is given, the exact number is not on record here.

With `CC(C)([C@H](NC(=O)c1ccc(C#Cc2ccc(CNCC(F)(F)F)nc2)cc1)C(=O)NO)S(C)(=O)=O` [Compound 355], the MIC MH 6357 in test [1] was 0.8 µg/mL (≈ 1.52 µM). The MIC MH 6374 in test [2] was 1.6 µg/mL (≈ 3.04 µM). In [3], this compound came in with an MIC MH 10720 of at most 0.1 µg/mL. Besides, the MIC MH 12587 in [4] came to 1.6 µg/mL (≈ 3.04 µM). The same compound showed an MIC MH 13065 in test [5] of 0.8 µg/mL (≈ 1.52 µM). The compound also had an MIC MH 13093 in [6] of 1.6 µg/mL (≈ 3.04 µM). Besides, in [7], the MIC PM 6267 stood at 0.8 µg/mL (≈ 1.52 µM). The MIC PM 6391 in test [8] was 0.2 µg/mL (≈ 0.38 µM). The compound also showed an MIC PM 10775 in test [9] of at most 0.1 µg/mL. Further, the MIC PM 12080 in test [10] was at most 0.1 µg/mL.
For `CC(C)([C@H](NC(=O)c1ccc(C#Cc2ccc(CNCc3ncccn3)nc2)cc1)C(=O)NO)S(C)(=O)=O` [Compound 356], the MIC MH 6357 in test [1] is 6.3 µg/mL (≈ 11.7 µM). In [2], this compound showed an MIC MH 6374 of 6.3 µg/mL (≈ 11.7 µM). Further, in test [3], the MIC MH 10720 was 3.1 µg/mL (≈ 5.78 µM). The compound further registered an MIC MH 12587 in test [4] of 12.5 µg/mL (≈ 23.3 µM). For the same compound, the MIC MH 13065 in test [5] came out at 6.3 µg/mL (≈ 11.7 µM). In test [6], the MIC MH 13093 was determined as 12.5 µg/mL (≈ 23.3 µM). Moreover, the MIC PM 6267 in test [7] came out at 6.3 µg/mL (≈ 11.7 µM). Also, the MIC PM 6391 in test [8] turned out to be 3.1 µg/mL (≈ 5.78 µM). This compound registered an MIC PM 10775 in test [9] of 0.2 µg/mL (≈ 0.373 µM). The compound also registered an MIC PM 12080 in test [10] of 1.6 µg/mL (≈ 2.98 µM).
In turn, `Cc1cnc(CNCc2ccc(C#Cc3ccc(C(=O)N[C@H](C(=O)NO)C(C)(C)S(C)(=O)=O)cc3)cn2)o1` [Compound 357] displayed an MIC MH 6357 in test [1] of 0.8 µg/mL (≈ 1.48 µM). The MIC MH 6374 in test [2] was found to be 0.8 µg/mL (≈ 1.48 µM). In test [3], this compound came in with an MIC MH 10720 of at most 0.1 µg/mL. In addition, in test [4], the MIC MH 12587 amounted to 1.6 µg/mL (≈ 2.97 µM). In [5], this compound came in with an MIC MH 13065 of 0.8 µg/mL (≈ 1.48 µM). Moreover, the MIC MH 13093 in test [6] is 1.6 µg/mL (≈ 2.97 µM). The compound further yielded an MIC PM 6267 in test [7] of 0.8 µg/mL (≈ 1.48 µM). The MIC PM 6391 in [8] stood at 0.4 µg/mL (≈ 0.741 µM). For the same compound, in [9], the MIC PM 10775 was at most 0.1 µg/mL. This compound also yielded an MIC PM 12080 in test [10] of 0.2 µg/mL (≈ 0.371 µM).
On to `CC(C)(O)[C@H](NC(=O)c1ccc(C#Cc2ccc(CNCC#N)s2)cc1)C(=O)NO` [Compound 358], for which the MIC MH 6357 in [1] was determined as 3.1 µg/mL (≈ 7.27 µM). For the same compound, the MIC MH 6374 in test [2] amounted to 1.6 µg/mL (≈ 3.75 µM). Besides, the MIC MH 10720 in [3] came out at 0.8 µg/mL (≈ 1.88 µM). This compound gave an MIC MH 12587 in test [4] of 6.3 µg/mL (≈ 14.8 µM). In test [5], this compound showed an MIC MH 13065 of 6.3 µg/mL (≈ 14.8 µM). In test [6], this compound returned an MIC MH 13093 of 6.3 µg/mL (≈ 14.8 µM). The MIC PM 6267 in [7] came out at 0.8 µg/mL (≈ 1.88 µM). Also, in [8], the MIC PM 6391 worked out at 1.6 µg/mL (≈ 3.75 µM). In test [9], this compound returned an MIC PM 10775 of 0.2 µg/mL (≈ 0.469 µM). This compound registered an MIC PM 12080 in test [10] of 0.8 µg/mL (≈ 1.88 µM).
`CC(C)(O)[C@H](NC(=O)c1ccc(C#Cc2ccc(CNCc3nccs3)s2)cc1)C(=O)NO` [Compound 359] yielded an MIC MH 6357 in test [1] of 0.4 µg/mL (≈ 0.825 µM). The compound further displayed an MIC MH 6374 in test [2] of 0.2 µg/mL (≈ 0.413 µM). In addition, the MIC MH 10720 in test [3] was at most 0.1 µg/mL. For the same compound, the MIC MH 12587 in test [4] came to 0.4 µg/mL (≈ 0.825 µM). This compound also displayed an MIC MH 13065 in test [5] of 0.2 µg/mL (≈ 0.413 µM). In test [6], the MIC MH 13093 was found to be 0.4 µg/mL (≈ 0.825 µM). The MIC PM 6267 in test [7] was at most 0.1 µg/mL. In addition, the MIC PM 6391 in test [8] was at most 0.1 µg/mL. Further, the MIC PM 10775 in test [9] was 0.2 µg/mL (≈ 0.413 µM). The MIC PM 12080 in [10] is at most 0.1 µg/mL.
As to `CC(C)(O)[C@H](NC(=O)c1ccc(C#Cc2ccc(CNCc3ncccn3)s2)cc1)C(=O)NO` [Compound 360], the MIC MH 6357 in test [1] came out at 0.8 µg/mL (≈ 1.67 µM). In test [2], this compound displayed an MIC MH 6374 of 1.6 µg/mL (≈ 3.34 µM). In [3], this compound came in with an MIC MH 10720 of 0.8 µg/mL (≈ 1.67 µM). In test [4], this compound displayed an MIC MH 12587 of 6.3 µg/mL (≈ 13.1 µM). In test [5], this compound had an MIC MH 13065 of 1.6 µg/mL (≈ 3.34 µM). This compound also came in with an MIC MH 13093 in test [6] of 6.3 µg/mL (≈ 13.1 µM). Besides, the MIC PM 6267 in [7] was 0.4 µg/mL (≈ 0.834 µM). This compound also came in with an MIC PM 6391 in test [8] of 1.6 µg/mL (≈ 3.34 µM). In test [9], this compound displayed an MIC PM 10775 of at most 0.1 µg/mL. Also, the MIC PM 12080 in [10] was determined as 0.4 µg/mL (≈ 0.834 µM).
In turn, `C=CCNCc1ccc(C#Cc2ccc(C(=O)N[C@H](C(=O)NO)C(C)(C)O)cc2)cn1` [Compound 361] yielded an MIC MH 6357 in test [1] of 3.1 µg/mL (≈ 7.34 µM). The same compound registered an MIC MH 6374 in test [2] of 0.8 µg/mL (≈ 1.89 µM). The compound further yielded an MIC MH 10720 in [3] of 0.4 µg/mL (≈ 0.947 µM). The compound further returned an MIC MH 12587 in test [4] of 3.1 µg/mL (≈ 7.34 µM). Also, the MIC MH 13065 in test [5] stood at 1.6 µg/mL (≈ 3.79 µM). The same compound came in with an MIC MH 13093 in test [6] of 3.1 µg/mL (≈ 7.34 µM). The MIC PM 6267 in test [7] was determined as 0.4 µg/mL (≈ 0.947 µM). This compound showed an MIC PM 6391 in [8] of 0.4 µg/mL (≈ 0.947 µM). Besides, the MIC PM 10775 in test [9] is at most 0.1 µg/mL. The MIC PM 12080 in [10] is 0.2 µg/mL (≈ 0.473 µM).

The values are drawn from patent publication US11034650B2, “Compounds useful for treating a Mannheimia haemolytica or Histophilus somni infection” (Intervet Inc., priority 2016, dated 2021).
